# Results published in US9426983B2, “Agrochemical composition and method for preparing the same” (priority 2007, dated 2016).
# Experiment: Tebuconazole concentration in the sprayed composition, determined by chromatograph
# Assay type: physicochemical
# Description: After the storage period of two weeks, each of the concentrates A to E was diluted with water. 10 liters of spraying compositions were prepared using hard water (CIPAC standard water D, 342 ppm) in 3 different concentrations: 0.5, 1, and 2 times the recommended spraying concentration for each concentrate.
# Each diluted composition was sprayed using a personal spraying machine and using one spray nozzle equipped with 200 mesh screen. A sample of each composition was collected leaving the spraying machine after spraying.
# Further, every sample of the spray compositon was analyzed in a chromatograph to determine the concentration of tebuconazole in the composition as it would be reaching the locus to be treated. […]
smiles,measurement,setting,value
CC(C)(C)C(O)(CCc1ccc(Cl)cc1)Cn1cncn1 (stereo not drawn) [Tebuconazole],Tebuconazole concentration,"0.5% dilution, 0 hr",2064 ppm
same,Tebuconazole concentration,"0.5% dilution, 1 hr",2039 ppm
same,Tebuconazole concentration,"0.5% dilution, 2 hr",2009 ppm
same,Tebuconazole concentration,"0.5% dilution, 3 hr",1969 ppm
same,Tebuconazole concentration,"0.5% dilution, 4 hr",1924 ppm
same,Tebuconazole concentration,"1.0% dilution, 0 hr",4150 ppm
same,Tebuconazole concentration,"1.0% dilution, 1 hr",4123 ppm
same,Tebuconazole concentration,"1.0% dilution, 2 hr",4091 ppm
same,Tebuconazole concentration,"1.0% dilution, 3 hr",4052 ppm
same,Tebuconazole concentration,"1.0% dilution, 4 hr",4007 ppm
same,Tebuconazole concentration,"2.0% dilution, 0 hr",8300 ppm
same,Tebuconazole concentration,"2.0% dilution, 1 hr",8272 ppm
same,Tebuconazole concentration,"2.0% dilution, 2 hr",8237 ppm
same,Tebuconazole concentration,"2.0% dilution, 3 hr",8197 ppm
same,Tebuconazole concentration,"2.0% dilution, 4 hr",8152 ppm
